According to patent US20100036088A1, “Selective poly-N-substituted glycine antibiotics” (priority 2008, published 2010):
Values after ≈ are worked out from the molar mass of the structure shown. Where two headings read alike, the source gives them in different places. Numbered stars: 1 amine (or outer) side, 2 acyl side, 3 side chain; on linkers, the order of the positions; unused ones are H or OH. Square brackets hold non-standard residues; d marks the D form. Peptide text beside a SMILES is read from it. X1 = CC(C)[C@H](C)N(CC(=O)[*:2])[*:1]; Nspe = C[C@H](NCC(=O)O)c1ccccc1; Nphe = O=C(O)CNCc1ccccc1; Nlys = NCCCCNCC(=O)O

Legend:
[1] = RP-HPLC elution solvent composition as measure of molecular hydrophobicity; format: physicochemical; conditions: Table 5; average of three injections; linear 5%-95% acetonitrile/water (0.1% TFA) over 45 minutes, C18 column; measure of hydrophobicity
Excerpt: (§1) An initial set of 15 ampetoid analogs was synthesized to determine whether peptoids are affected by structural and sequence modifications in a manner consistent with AMP activities. The designs for ampetoids in this library were derived from two antibacterial and selective amphipathic dodecamers, 1 and 2. Peptoid 1 [H-(Nlys-Nspe-Nspe)4—NH2] is composed of 2/3 Nspe, the peptoid analog of phenylalanine, and 1/3 Nlys, the peptoid analog of lysine (see FIG. 1 for the structures of representative peptoid monomers and corresponding N-substituents). Peptoid 2 [H-(Nlys-Nssb-Nspe)4—NH2] contains 1/3 isoleucine-like Nssb monomers in place of Nspe. The variant sequences were designed to effect changes in chirality, length, hydrophobicity, charge, and amphipathicity. All of these compounds were tested for antibacterial activity against representative BSL1 Gram-negative (E. coli JM109) and Gram-positive (B. subtilis BR151) bacterial strains. As an initial measure of selectivity, the lytic activity of the peptoids was determined against human erythrocytes. Table 1 summarizes the sequences synthesized, the solvent composition at RP-HPLC elution as a relative measure of molecular hydrophobicity, and antibacterial and hemolytic activities.
Following synthesis, peptoid oligomers can be cleaved from the resin, simultaneously removing the tert-butoxycarbonyl (Boc) protecting group from Nlys residues, by treatment with 10 ml 2,2,2-trifluoroacetic acid (TFA)/triisopropylsilane/H2O (95:2.5:2.5 by volume) for 30 min. The cleavage mixture is then diluted with 25 ml 50% aqueous acetonitrile, frozen, and lyophilized. Dilution and lyophilization is repeated twice more in order to remove excess TFA. Subsequent to cleavage, peptoids are each purified to >97% homogeneity by preparative scale reversed-phase HPLC using a Waters Prep LC 4000 system, with Waters 2487 dual-wavelength UV detection, and gradient elution (solvent A, 0.1 vol % trifluoroacetic acid (TFA) in water; solvent B, 0.1 vol % TFA in acetonitrile) through a Vydac (Hysperia, Calif.) 214TP101550 C4 peptide/protein column (10-15 μm, 300 Å, 5×25 cm). Following prep HPLC, peptoid purities and crude yields were determined from analytical scale HPLC, performed with a Waters 2695 Separations Module with a Waters 2487 dual-wavelength UV detector and gradient elution (solvent A, 0.1 vol % TFA in water; solvent B, 0.1 vol % TFA in acetonitrile) through a Vydac C4 214TP53 peptide/protein column (5 μm, 300 Å, 3.2×250 mm). The precise gradient employed for HPLC depended on the identity and hydrophobicity of the oligomer in question. All analytical HPLC was performed at 0.5 ml/min flow and 58° C. Preparative HPLC was performed at 50 ml/min flow and room temperature.

[2] = tested on: Staphylococcus aureus NRS119; format: cell-based; conditions: for MIC S. aureus NRS119: Table 7A, linezolid-resistant
Experimental: (§2) Antibacterial assays. MICs were determined according to CLSI M7-A6 protocols in a 96-well microtiter plate. In test wells, 50 μL bacterial inoculum (5×10^5 CFU/ml) in Mueller-Hinton broth (MHB) was added to 50 μL peptoid solution in MHB (prepared by 1:2 serial dilutions). Positive controls contained 50 μL inoculum and 50 μL MHB without peptoid. […] MIC values reported were reproducible between three independent experimental replicates, each consisting of two parallel trials. Broad-spectrum antimicrobial susceptibility testing was performed against BSL2 pathogens by Nova Biologicals, Inc. (Conroe, Tex.).
(§3) Broad-spectrum antibacterial assays. MICs of compounds were determined by microdilution procedure in Mueller-Hinton broth (MHB) in accordance with CLSI M7-A6 protocols in a manner similar to that described for the screen antibacterial assays. Inoculated microtiter plates were incubated at 35° C. for 24 hours prior to the result being recorded. Four ATCC strains that were used as standards are recommended by CLSI: Pseudomonas aeruginosa ATCC 27853, Escherichia coli ATCC 25922, Staphylococcus aureus ATCC 29213 and Enterococcus faecalis ATCC 29212. Other strains from the ATCC collection include Proteus vulgaris ATCC 49132, Proteus mirabilis ATCC 35659, Klebsiella pneumoniae ATCC 33495, Enterobacter aerogenes ATCC 35029 and Serratia marcescens ATCC 13880. S. aureus NRS100 (COL) is a well characterized methicillian-resistant S. aureus (MRSA) strain. The strains S. aureus VAN1 and S. aureus VAN2, vancomycin-resistant MRSA strains that were isolated in Michigan and Pennsylvania, were the first vancomycin-resistant strains clinically isolated. S. aureus NRS119 and S. aureus NRS120 are linezolid-resistant isolates from the Network on Antimicrobial Resistance in S. aureus (NARSA) collection. E. faecalis 99 and E. faecium 106 are vancomycin-resistant enterococcal strains.

Enterococcus faecalis 99 = format: cell-based; conditions: for MIC E. faecalis 99: Table 7A
Experimental: as §2, §3

[3] = tested on: Enterobacter aerogenes ATCC 35029; format: cell-based; conditions: for MIC E. aerogenes ATCC 35029: Table 7A
Experimental: as §2, §3

[4] = tested on: Staphylococcus aureus VAN1; format: cell-based; conditions: for MIC S. aureus VAN1: Table 7A, MRSA, vancomycin-resistant
Experimental: as §2, §3

[5] = tested on: Pseudomonas aeruginosa ATCC 27853; format: cell-based; conditions: for MIC P. aeruginosa ATCC 27853: Table 7A
Experimental: as §2, §3

[6] = tested on: Enterococcus faecalis ATCC 29212; format: cell-based; conditions: for MIC E. faecalis ATCC 29212: Table 7A
Experimental: as §2, §3

[7] = tested on: Staphylococcus aureus NRS120; format: cell-based; conditions: for MIC S. aureus NRS120: Table 7A, linezolid-resistant
Experimental: as §2, §3

[8] = tested on: Escherichia coli ATCC 25922; format: cell-based; conditions: for MIC E. coli ATCC 25922: Table 7A
Experimental: as §2, §3

[9] = tested on: Serratia marcescens ATCC 13880; format: cell-based
Experimental: as §2, §3

[10] = tested on: Staphylococcus aureus NRS100 (COL); format: cell-based; conditions: for MIC S. aureus NRS100 (COL): Table 7A, MRSA
Experimental: as §2, §3

[11] = tested on: Klebsiella pneumoniae ATCC 33495; format: cell-based; conditions: for MIC K. pneumoniae ATCC 33495: Table 7A
Experimental: as §2, §3

[12] = tested on: Staphylococcus aureus ATCC 29213; format: cell-based; conditions: for MIC S. aureus ATCC 29213: Table 7A
Experimental: as §2, §3

E. coli JM109 = format: cell-based
Excerpt: as §1, §2

HPLC elution (% ACN) [1] [% ACN]	MIC Staphylococcus aureus NRS119 ([2]; NRS119) [µM]	MIC S. aureus NRS119 [2] [µg/mL]	MIC Enterococcus faecalis 99 (Enterococcus faecalis 99; 99) [µM]	MIC E. faecalis 99 (Enterococcus faecalis 99) [µg/mL]	MIC Enterobacter aerogenes ATCC 35029 ([3]; ATCC 35029) [µM]	MIC E. aerogenes ATCC 35029 [3] [µg/mL]	MIC S. aureus VAN1 [4] [µg/mL]	MIC Staphylococcus aureus VAN1 ([4]; VAN1) [µM]	MIC Pseudomonas aeruginosa ATCC 27853 ([5]; ATCC 27853) [µM]	MIC P. aeruginosa ATCC 27853 [5] [µg/mL]	MIC Enterococcus faecalis ATCC 29212 ([6]; ATCC 29212) [µM]	MIC E. faecalis ATCC 29212 [6] [µg/mL]	MIC Staphylococcus aureus NRS120 ([7]; NRS120) [µM]	MIC Escherichia coli ATCC 25922 ([8]; ATCC 25922) [µM]	MIC S. marcescens ATCC 13880 ([9]; ATCC 13880) [µg/mL]	MIC Serratia marcescens ATCC 13880 ([9]; ATCC 13880) [µM]	MIC Staphylococcus aureus NRS100 (COL) ([10]; NRS100 (COL)) [µM]	MIC Klebsiella pneumoniae ATCC 33495 ([11]; ATCC 33495) [µM]	MIC Staphylococcus aureus ATCC 29213 ([12]; ATCC 29213) [µM]	SMILES	other results
63.8	9.5 (≈ 16 µg/mL)	16 (≈ 9.51 µM)	38.0 (≈ 64 µg/mL)	64 (≈ 38 µM)	19.0 (≈ 32 µg/mL)	32 (≈ 19 µM)	8 (≈ 4.75 µM)	4.8 (≈ 8.08 µg/mL)	9.5 (≈ 16 µg/mL)	16 (≈ 9.51 µM)	4.8 (≈ 8.08 µg/mL)	8 (≈ 4.75 µM)	9.5 (≈ 16 µg/mL)	4.8 (≈ 8.08 µg/mL)	>128	>76.0	4.8 (≈ 8.08 µg/mL)	4.8 (≈ 8.08 µg/mL)	4.8 (≈ 8.08 µg/mL)	CC(C)[C@H](C)N(CC(=O)N(CC(=O)N(CCCCN)CC(=O)N(CC(=O)N(CC(=O)N(CCCCN)CC(=O)N(CC(=O)N(CC(=O)N(CCCCN)CC(=O)N(CC(=O)N(CC(N)=O)[C@@H](C)c1ccccc1)[C@@H](C)C(C)C)[C@@H](C)c1ccccc1)[C@@H](C)C(C)C)[C@@H](C)c1ccccc1)[C@@H](C)C(C)C)[C@@H](C)c1ccccc1)C(=O)CNCCCCN [1-Nsdp2,5,8,11, H-(Nlys-Nsdp-Nspe)4-NH2] (H-[Nlys][X1][Nspe][Nlys][X1][Nspe][Nlys][X1][Nspe][Nlys][X1][Nspe]-NH2)	MIC S. aureus NRS120 [7]: 16 µg/mL (≈ 9.51 µM); MIC E. coli ATCC 25922 [8]: 8 µg/mL (≈ 4.75 µM); MIC S. aureus NRS100 (COL) [10]: 8 µg/mL (≈ 4.75 µM); MIC K. pneumoniae ATCC 33495 [11]: 8 µg/mL (≈ 4.75 µM); MIC S. aureus ATCC 29213 [12]: 8 µg/mL (≈ 4.75 µM)
	9.1 (≈ 16 µg/mL)		36.5 (≈ 64.1 µg/mL)		72.9 (≈ 128 µg/mL)			4.6 (≈ 8.07 µg/mL)	18.2 (≈ 31.9 µg/mL)		4.6 (≈ 8.07 µg/mL)		9.1 (≈ 16 µg/mL)	9.1 (≈ 16 µg/mL)	>128	>72.9	4.6 (≈ 8.07 µg/mL)	9.1 (≈ 16 µg/mL)	4.6 (≈ 8.07 µg/mL)	C[C@@H](c1ccccc1)N(CC(N)=O)C(=O)CN(C(=O)CN(CCCCN)C(=O)CN(C(=O)CN(C(=O)CN(CCCCN)C(=O)[C@@H]1CCCN1C(=O)CN(C(=O)CN(CCCCN)C(=O)CN(C(=O)CN(C(=O)CNCCCCN)[C@@H](C)c1ccccc1)[C@@H](C)c1ccccc1)[C@@H](C)c1ccccc1)[C@@H](C)c1ccccc1)[C@@H](C)c1ccccc1)[C@@H](C)c1ccccc1 [1-Pro6, H-Nlys-Nspe-Nspe-Nlys-Nspe-L-Pro-(Nlys-Nspe-Nspe)2-NH2] (H-[Nlys][Nspe][Nspe][Nlys][Nspe]P[Nlys][Nspe][Nspe][Nlys][Nspe][Nspe]-NH2)	MICs (E. coli JM109; JM109): < 7 µM
59.8	9.4 (≈ 16 µg/mL)	16 (≈ 9.37 µM)	37.5 (≈ 64 µg/mL)	64 (≈ 37.5 µM)	75.0 (≈ 128 µg/mL)	128 (≈ 75 µM)	8 (≈ 4.69 µM)	4.7 (≈ 8.02 µg/mL)	9.4 (≈ 16 µg/mL)	16 (≈ 9.37 µM)	9.4 (≈ 16 µg/mL)	16 (≈ 9.37 µM)	9.4 (≈ 16 µg/mL)	9.4 (≈ 16 µg/mL)	>128	>75	4.7 (≈ 8.02 µg/mL)	4.7 (≈ 8.02 µg/mL)	4.7 (≈ 8.02 µg/mL)	NCCCCNCC(=O)N(CC(=O)N(CC(=O)N(CCCCN)CC(=O)N(CC(=O)N(CC(=O)N(CCCCN)CC(=O)N(CC(=O)N(CC(=O)N(CCCCN)CC(=O)N(CC(=O)N(CC(N)=O)Cc1ccccc1)Cc1ccccc1)Cc1ccccc1)Cc1ccccc1)Cc1ccccc1)Cc1ccccc1)Cc1ccccc1)Cc1ccccc1 [1achiral, H-(Nlys-Npm-Npm)4-NH2] (H-[Nlys][Nphe][Nphe][Nlys][Nphe][Nphe][Nlys][Nphe][Nphe][Nlys][Nphe][Nphe]-NH2)	MIC S. aureus NRS120 [7]: 16 µg/mL (≈ 9.37 µM); MIC E. coli ATCC 25922 [8]: 16 µg/mL (≈ 9.37 µM); MIC S. aureus NRS100 (COL) [10]: 8 µg/mL (≈ 4.69 µM); MIC K. pneumoniae ATCC 33495 [11]: 8 µg/mL (≈ 4.69 µM); MIC S. aureus ATCC 29213 [12]: 8 µg/mL (≈ 4.69 µM)
																				C[C@@H](c1ccccc1)N(CC(N)=O)C(=O)CN(C(=O)CN(CCCCN)C(=O)CN(C(=O)CN(C(=O)CN(CCCCN)C(=O)CN(C(=O)CN(C(=O)CN(CCCCN)C(=O)CN(C(=O)CN(C(=O)CNCCCCN)[C@@H](C)c1ccccc1)[C@@H](C)c1ccccc1)[C@@H](C)c1ccccc1)[C@@H](C)c1ccccc1)[C@@H](C)c1ccccc1)[C@@H](C)c1ccccc1)[C@@H](C)c1ccccc1 [compound 1, H-(NLys-Nspe-Nspe)4-NH2] (H-[Nlys][Nspe][Nspe][Nlys][Nspe][Nspe][Nlys][Nspe][Nspe][Nlys][Nspe][Nspe]-NH2)	E. coli MIC (E. coli JM109; Table 1, E. coli JM109): 3.5 µM; MIC Staphylococcus aureus NRS119 ([2]; Table 4, Gram +): 2.2 µM; MIC Enterococcus faecalis 99 (Enterococcus faecalis 99; Table 4, vancomycin resistant): 4.4 µM (≈ 8.01 µg/mL); MIC Enterobacter aerogenes ATCC 35029 ([3]; Table 4, Gram −): 8.8 µM (≈ 16 µg/mL); MIC Staphylococcus aureus VAN1 ([4]; Table 4, vancomycin resistant): 2.2 µM (≈ 4 µg/mL); MIC Pseudomonas aeruginosa ATCC 27853 ([5]; Table 4, Gram −): 4.4 µM (≈ 8.01 µg/mL); MIC Enterococcus faecalis ATCC 29212 ([6]; Table 4, Gram +): 2.2 µM; MIC Staphylococcus aureus NRS120 ([7]; Table 4, Gram +): 4.4 µM; MIC Escherichia coli ATCC 25922 ([8]; Table 4, Gram −): 2.2 µM (≈ 4 µg/mL); MIC Serratia marcescens ATCC 13880 ([9]; Table 4, Gram −): 70.4 µM (≈ 128 µg/mL); MIC Staphylococcus aureus NRS100 (COL) ([10]; Table 4, Gram +): 2.2 µM; MIC Klebsiella pneumoniae ATCC 33495 ([11]; Table 4, Gram −): 8.8 µM (≈ 16 µg/mL); MIC Staphylococcus aureus ATCC 29213 ([12]; Table 4, Gram +): 2.2 µM
